Measured values published in patent US20050148514A1, “Method and composition for treatment of angiogenesis” (priority 2003, published 2005).
“Also recorded” adds a separate entry of the source. Where no end group is shown, it is not given here.

What was measured:
MMP-9 = experiment: Gelatin zymography of culture media of MatLyLu tumor cells; assay type: cell-based; settings: 50 ug/ml collagen type-I, 500 ug/ml and 1 mg/ml, 72 hrs, serum free
Experimental: Zymography. Zymography is a technique generally used to analyze the activity of matrix metalloproteinases (MMPs) in biological samples. It involves the electrophoretic separation of proteins under denaturing (Sodium Dodecyl Sulfate (SDS)) but non-reducing conditions through a polyacrylamide gel containing gelatin (for example, 10% gel containing 1 mg/ml gelatin for MMP-9 and MMP-2 assays). The resolved proteins are re-natured by exchanging SDS with a non-ionic detergent such as Triton X-100 and the gel is incubated in an incubation buffer for activation of MMP-2 and MMP-9 (for example at 37° C. for 18 hrs). The gel is stained with Coomassie blue and the MMP-2 and MMP-9 bands may be visualized as clear bands against a blue background (i.e., the MMPs degrade the gelatin and are visualized as clear bands; pro MMP-2 is 68 kDa and pro-MMP-9 is 92 kDa). These bands can be quantified using densitometry.
In the experiment presented in FIG. 1, 2.5×10^5 MatLyLu tumor cells (American Type Culture Collection No.: JHU-5)) were seeded in T-25 flasks containing RPMI with 10% fetal bovine serum (FBS). […]
The media were collected after 72 hours of exposure to the PCK3145 derivative and subjected to gelatin zymography. […] The band intensities were determined using the Image Quant software (version 5.0) from molecular Dynamics. […]

ERK [1] = experiment: Growth factor-induced ERK phosphorylation in HUVEC (western blot); assay type: cell-based, Human
Experimental: Cell culture. Human umbilical vein endothelial cells (HUVEC) and pulmonary aortic smooth muscle cells (PASMC) were obtained from Clonetics and maintained in endothelial cell basal medium-2, (EBM-2; Clonetics) and smooth muscle medium-2 (SmGM-2; Clonetics), respectively. Cells were cultured at 37° C. under a humidified atmosphere containing 5% CO2. For experimental purposes, cells were plated in 8 100-mm plastic dishes at 5,000 cells/cm^2 and were grown to confluence before overnight serum starvation. Cells were treated with vehicle or with a PCK3145 derivative diluted in 0.1 N NaOH, and stimulated with 50 ng/ml VEGF, PDGF or with 1 μM S1P.
Immunoprecipitation and immunoblotting procedures. After treatment, cells were washed once with phosphate-buffered saline (PBS) containing 1 mM sodium orthovanadate and were incubated in the same medium for 1 h at 4° C. The cells were solubilized on ice in lysis buffer (150 mM NaCl, 10 mM Tris-HCl, pH 7.4, 1 mM EDTA, 1 mM EGTA, 0.5% Nonidet P-40, 1% Triton X-100) containing 1 mM sodium orthovanadate. The cells were then scraped from the culture dishes and the resulting lysates were clarified by centrifugation at 10,000 g for 10 min. Protein concentrations were determined using the micro bicinchoninic acid method. For immunoprecipitation studies, lysates were clarified by a 1 h incubation at 4° C. with a mixture of Protein A/Protein G Sepharose beads. After removal of the Sepharose beads by low-speed centrifugation, identical amounts of protein (200 μg) from each sample were transferred to fresh tubes and incubated in lysis buffer overnight at 4° C. in the presence of 2 μg/ml of specific antibodies. Immunocomplexes were collected by incubating the mixture with 25 μl (50% suspension) of Protein A—(rabbit primary antibody) or Protein G—(mouse primary antibody) Sepharose beads, for 2 h. Nonspecifically-bound material was removed by washing the beads three times in 1 ml of lysis buffer containing 1 mM sodium orthovanadate, and bound material was solubilized in 25 μl of two-fold concentrated Laemmli sample buffer, boiled 5 min, and resolved by SDS-PAGE. The proteins were transferred onto polyvinylidene difluoride (PVDF) membranes, blocked 1 h at room temperature with Tris-buffered saline/Tween 20 (147 mM NaCl, 20 mM Tris/HCl, pH 7.5, and 0.1% Tween 20) containing 2% bovine serum albumin and incubated overnight at 4° C. with primary antibody.
(§1) VEGF is a strong activator of ERKs (Extracellular-signal-Regulated protein Kinases) 1 and 2 via VEGF receptor 2. In order to test the ability of the PCK3145 derivative in potentially antagonizing VEGF-mediated ERK phosphorylation, serum-starved quiescent endothelial cells (HUVEC) were incubated with vehicle (phosphate-buffered saline (PBS) pH 7.4) or PCK3145 derivative (300 μg/ml) for 24 h and then stimulated with VEGF, bFGF (basic Fibroblast Growth Factor) or S1P (sphingosine-1-phosphate). Cells were washed with PBS containing NaF/Na3VO4 and incubated in the same medium buffer for 1 h at 4° C. The cells were scraped from the culture dishes and the resulting lysates clarified by centrifugation. Western blotting and immunodetection using anti-phosphoERK and anti-ERK antibodies was then performed.

ERK [2] = experiment: VEGF-induced ERK phosphorylation in BAEC; assay type: cell-based; settings: data not shown
Experimental: as §1
The total amount of ERK in each sample of cells was unaffected by the PCK3145 derivative (FIG. 4A). Although, PCK3145 derivative also seemed to stimulate ERK phosphorylation induced by S1P in HUVEC (FIG. 4A), that result was found not statistically significant.

MAPK/JNK pathway (SRE) = experiment: SEAP gene-reporter assay in U-87 glioma cells, SRE element; assay type: cell-based; settings: alkaline phosphatase activity in extracellular media
Experimental: In order to investigate the potential intracellular pathways triggered by the PCK3145 derivative, a gene-reporter assay using the SEAP (Secreted Alkaline Phosphatase) Mercury Profiling Kit (CLONTECH) was performed in glioma cells (U-87). This assay enables the monitoring of transcription factors that are triggered by a particular experimental condition by assaying the alkaline phosphatase activity in the extracellular media. […] The induction of the MAPK pathway by the PCK3145 derivative is further confirmed by the rapid and transient induction of ERK phosphorylation between 5-10 minutes (FIG. 8B) and is shown to be dose-dependent (FIG. 8C). Finally, the effects of the PCK3145 derivative were also compared to those of a scrambled peptide.

Sequence: EWQTDNCETCTCYET (cysteine pairing not given here)
- MMP-9 secreted in the cell culture media, zymography (MMP-9): dose-dependent reduction
- time-course of effect on VEGF-induced ERK phosphorylation (ERK [1]; HUVEC, 3 and 24 hrs): necessity of a long term action
- total amount of ERK (ERK [1]; HUVEC, each sample of cells): unaffected
- dose-response of ERK phosphorylation by VEGF (ERK [1]; HUVEC, increasing doses): gradually inhibit
- ERK phosphorylation induced by VEGF (ERK [1]; serum-starved HUVEC, 300 μg/ml for 24 h, then VEGF): specific inhibitory effect; also recorded: comparable to that of PD98059
- ERK phosphorylation induced by bFGF (ERK [1]; serum-starved HUVEC, 300 μg/ml for 24 h, then bFGF): not that induced by bFGF
- ERK phosphorylation induced by VEGF (ERK [2]): inhibitory effect was confirmed
- SEAP reporter, MAPK/JNK pathway (SRE) (MAPK/JNK pathway (SRE)): triggers significantly; also recorded: extremely strong
